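Assay format: 96-well plates, 48-hour exposure. TGI is the concentration that stops growth completely.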
Columns and labels:
Experiment in all cases: NCI-60 cell line screen, 48 h
[1] = test system: IGROV1 ovarian
[2] = test system: A549 NSCLC
[3] = test system: HL-60(TB) leukemia
[4] = test system: DMS 114 small cell lung
[5] = test system: RPMI-8226 leukemia
[6] = test system: MOLT-4 leukemia
[7] = test system: MALME-3M melanoma
[8] = test system: HCT-116 colon
[9] = test system: UACC-257 melanoma
[10] = test system: HCC-2998 colon
[11] = test system: TK-10 renal
[12] = test system: SK-MEL-5 melanoma
[13] = test system: HT29 colon
[14] = test system: EKVX NSCLC
[15] = test system: SF-539 CNS
[16] = test system: SK-MEL-2 melanoma
[17] = test system: KM12 colon
[18] = test system: COLO 205 colon
[19] = test system: SNB-78 CNS
[20] = test system: K-562 leukemia
[21] = test system: SK-OV-3 ovarian
[22] = test system: CCRF-CEM leukemia
[23] = test system: OVCAR-4 ovarian
[24] = test system: UO-31 renal
[25] = test system: CAKI-1 renal
[26] = test system: 786-0 renal
[27] = test system: OVCAR-8 ovarian
[28] = test system: HOP-62 NSCLC
[29] = test system: OVCAR-3 ovarian
[30] = test system: DLD-1 colon
[31] = test system: NCI-H226 lung
[32] = test system: SNB-19 CNS
[33] = test system: HOP-18 NSCLC
[34] = test system: SW-620 colon
[35] = test system: M19-MEL melanoma
[36] = test system: M14 melanoma
[37] = test system: HOP-92 NSCLC
[38] = test system: UACC-62 melanoma
[39] = test system: SF-295 CNS
[40] = test system: KM20L2 colon
[41] = test system: RXF 393 renal
[42] = test system: ACHN renal
[43] = test system: OVCAR-5 ovarian
[44] = test system: SNB-75 CNS
[45] = test system: NCI-H460 lung
[46] = test system: HCT-15 colon
[47] = test system: A498 renal
[48] = test system: SR leukemia
[49] = test system: DMS 273 small cell lung
[50] = test system: SN12C renal
[51] = test system: LOX IMVI melanoma
[52] = test system: SK-MEL-28 melanoma
[53] = test system: LXFL 529 NSCLC
[54] = test system: NCI-H23 lung
[55] = test system: U251 CNS
[56] = test system: SF-268 CNS

Work on `CSc1nc(NC2OC(COC(C)=O)C(OC(C)=O)C(OC(C)=O)C2OC(C)=O)c(N=C(C)C(C)=O)c(=O)[nH]1` (stereo unspecified) yielded a TGI [1] greater than 100 µM, a TGI [2] greater than 100 µM and a TGI [3] greater than 100 µM. It also gave a TGI [4] greater than 100 µM, a TGI [5] greater than 100 µM and a TGI [6] greater than 100 µM. The TGI [7] was greater than 100 µM, the TGI [8] was greater than 100 µM and the TGI [9] was greater than 100 µM. For the same molecule, the TGI [10] was greater than 100 µM, the TGI [11] was greater than 100 µM and the TGI [12] was greater than 100 µM. The TGI [13] was greater than 100 µM, the TGI [14] was greater than 100 µM and the TGI [15] was greater than 100 µM. It also gave a TGI [16] greater than 100 µM, a TGI [17] greater than 100 µM and a TGI [18] greater than 100 µM. For the same molecule, the TGI [19] was greater than 100 µM, the TGI [20] was greater than 100 µM and the TGI [21] was greater than 100 µM. For the same molecule, the TGI [22] was greater than 100 µM, the TGI [23] was greater than 100 µM and the TGI [24] was greater than 100 µM. The TGI [25] was greater than 100 µM, the TGI [26] was greater than 100 µM and the TGI [27] was greater than 100 µM. The TGI [28] was greater than 100 µM, the TGI [29] was greater than 100 µM and the TGI [30] was greater than 100 µM. For the same molecule, the TGI [31] was greater than 100 µM, the TGI [32] was greater than 100 µM and the TGI [33] was greater than 100 µM. The TGI [34] was greater than 100 µM, the TGI [35] was greater than 100 µM and the TGI [36] was greater than 100 µM. It also gave a TGI [37] greater than 100 µM, a TGI [38] greater than 100 µM and a TGI [39] greater than 100 µM.

`Cc1ccc(Sc2ccccc2[N+](=O)[O-])cc1` showed a TGI [1] greater than 100 µM, a TGI [40] greater than 100 µM and a TGI [41] of 59.8 µM. For the same molecule, the TGI [2] was greater than 100 µM, the TGI [3] was 58.6 µM and the TGI [5] was greater than 100 µM. The TGI [6] was 81.4 µM, the TGI [7] was greater than 100 µM and the TGI [8] was greater than 100 µM. It also gave a TGI [9] of 67.8 µM, a TGI [10] of 68.3 µM and a TGI [42] greater than 100 µM. The TGI [43] was greater than 100 µM, the TGI [11] was greater than 100 µM and the TGI [12] was 30.8 µM. For the same molecule, the TGI [13] was 62.2 µM, the TGI [44] was 40.6 µM and the TGI [45] was greater than 100 µM. The TGI [14] was greater than 100 µM, the TGI [46] was 62.2 µM and the TGI [15] was greater than 100 µM. The TGI [47] was greater than 100 µM, the TGI [16] was greater than 100 µM and the TGI [17] was greater than 100 µM. The TGI [18] was 62.3 µM, the TGI [19] was 95.4 µM and the TGI [20] was greater than 100 µM. The TGI [21] was greater than 100 µM, the TGI [48] was greater than 100 µM and the TGI [22] was greater than 100 µM. It also gave a TGI [23] greater than 100 µM, a TGI [24] greater than 100 µM and a TGI [49] of 82.5 µM. It also gave a TGI [27] greater than 100 µM, a TGI [28] greater than 100 µM and a TGI [50] greater than 100 µM. The TGI [51] was greater than 100 µM, the TGI [29] was greater than 100 µM and the TGI [30] was greater than 100 µM. The TGI [31] was 71.2 µM, the TGI [33] was greater than 100 µM and the TGI [34] was greater than 100 µM. The TGI [52] was 60 µM, the TGI [35] was greater than 100 µM and the TGI [53] was greater than 100 µM. The TGI [54] was 78.2 µM, the TGI [36] was greater than 100 µM and the TGI [37] was 59.2 µM. It also gave a TGI [55] of 61.7 µM, a TGI [38] greater than 100 µM and a TGI [56] greater than 100 µM. It also gave a TGI [39] of 70.9 µM.
